Experimental data reported in patent US5470837A, “5'-vinylhalo-aristeromycin/adenosine analogs and immunosuppressants” (Merrell Dow Pharmaceuticals Inc., priority 1994, dated 1995).

Key:
[1] = system: human peripheral blood mononuclear cells; test: Mitogenic assay: pokeweed mitogen stimulated proliferation ([3H]-thymidine incorporation) of human peripheral blood mononuclear cells; assay type: cell-based
Procedure: Cells: Human peripheral blood mononuclear cells were isolated from samples of blood (in 0.01M sodium citrate) using 50 mL LEUKOPREP® separation tubes (Becton Dickenson, Lincoln Park, N.J.). Tubes were centrifuged at room temperature for 15 minutes at 2400 rpm in a swinging bucket rotor. The cells recovered at interface were washed in Dulbecco's PBS and resuspended in RPMI 1640 containing 10% FCS, 5×10^-5 M 2-mercaptoethanol, 2 mM L-glutamine, 1% penicillin-streptomycin and 1 mM HEPES buffer (CM). Mitogenic Assay: Human peripheral blood mononuclear cells (2×10^5) were incubated with pokeweed mitogen at a final concentration of 0.1 μg/mL or Concanavalin A at a final concentration of 1.0 μg/mL in 96 well flat-bottomed microtiter plates (Falcon 3072, Becton Dickinson). Compounds to be tested were added at the initiation of culture. The final volume was 0.2 mL. The cultures were incubated in 95% humidified air/5% CO2 at 37° C. for 2 days (Concanavalin A) or 6 days (Pokeweed mitogen). Eighteen hours before termination of the cultures, each well was pulsed with 1 μCi of [^3 H]-thymidine. Cells from individual wells were harvested onto glass fiber filter paper with an automated multi-sample harvester. Filters were placed in scintillation fluid (Universal Cocktail, ICN Radiochemicals, Irvin, Calif.) and the [^3 H]-thymidine incorporation, in counts per minute (cpm), was measured in a Packard Tri-carb 4640 Scintillation Counter. Peripheral blood mononuclear cells from three individuals were cultured with an optimal concentration of pokeweed mitogen, a T-dependent B-cell mitogen, in the presence of increasing concentrations of (Z)-4',5'-didehydro-5'-deoxy-5'-fluoroadenosine. […] Similar studies were performed culturing human peripheral blood cells with an optimal concentration of Concanavalin A, a potent T-cell mitogen.

anti-ovalbumin IgG = test: In vivo immune response to T-dependent antigen (ovalbumin): serum anti-ovalbumin IgG by ELISA; parameters: species or system mice; details: for Anti-Ovalbumin Titer ± S.D.: ten days after immunization, dilution giving absorbance 0.750 at 405 nm
Procedure: In vivo immune response: Mice were radomly distributed by weight into 3 groups of ten. Dosing i.p. with Dulbecco's phosphate buffered saline (PBS) or (Z)-4',5'-didehydro-5'-deoxy-5'-fluoroadenosine (at 5 or 10 mg/Kg) dissolved in PBS was begun one day prior to immunization. Ovalbumin (Sigma, St. Louis, Mo.) at 2 mg/mL in PBS was emulsified in an equal volume of Freunds complete adjuvant and 50 μL, containing 50 μg ovalbumin, was injected into each footpad. Animals were dosed daily. Ten days after the immunization, the animals were bled for serum and sacrificed. Serum levels of anti-ovalbumin IgG were quantitated in an ELISA. Specifically, 100 μL of a 1% ovalbumin solution in Tris-bufferedsaline (TBS) (20 mM Tris, 500 mM NaCl, pH 7.5) was added to individual wells of a 96 well ELISA microtiter plate. The plate was incubated for 2 hours at room temperature and the wells were washed 3 times with TBS containing 0.05% Tween 20 (TBS-Tween). Dilutions of the serum samples in TBS-Tween (100 μL) were added to the wells, which were then incubated for one hour at room temperature. The plate was again washed 3 times with TBS-Tween. The wells were then incubated with 100 μL of a 1:1000 dilution of rabbit anti-mouse IgG labled with horse radish peroxidase (Bio-Rad, Richmond, Calif.) for one hour at room temperature. After washing 3 times with TBS-Tween, the wells were incubated with 100 μL of Bio-Rad peroxidase substrate [2,2'-azino-di-(3-ethyl-benzthiazoline sulfonate) in cocodylic acid buffer and hydrogen peroxide]. Absorbance at 405 nm was measured and the antibody titer was calculated from the linear regression curve of each serum sample and is reported as the log of the dilution which gave an absorbance reading of 0.750, unless otherwise indicated.

[2] = system: human peripheral blood mononuclear cells; test: Mitogenic assay: Concanavalin A stimulated proliferation ([3H]-thymidine incorporation) of human peripheral blood mononuclear cells; assay type: cell-based
Procedure: Cells: Human peripheral blood mononuclear cells were isolated from samples of blood (in 0.01M sodium citrate) using 50 mL LEUKOPREP® separation tubes (Becton Dickenson, Lincoln Park, N.J.). Tubes were centrifuged at room temperature for 15 minutes at 2400 rpm in a swinging bucket rotor. The cells recovered at interface were washed in Dulbecco's PBS and resuspended in RPMI 1640 containing 10% FCS, 5×10^-5 M 2-mercaptoethanol, 2 mM L-glutamine, 1% penicillin-streptomycin and 1 mM HEPES buffer (CM).
(§1) Mitogenic Assay: Human peripheral blood mononuclear cells (2×10^5) were incubated with pokeweed mitogen at a final concentration of 0.1 μg/mL or Concanavalin A at a final concentration of 1.0 μg/mL in 96 well flat-bottomed microtiter plates (Falcon 3072, Becton Dickinson). Compounds to be tested were added at the initiation of culture. The final volume was 0.2 mL. The cultures were incubated in 95% humidified air/5% CO2 at 37° C. for 2 days (Concanavalin A) or 6 days (Pokeweed mitogen). Eighteen hours before termination of the cultures, each well was pulsed with 1 μCi of [^3 H]-thymidine. Cells from individual wells were harvested onto glass fiber filter paper with an automated multi-sample harvester. Filters were placed in scintillation fluid (Universal Cocktail, ICN Radiochemicals, Irvin, Calif.) and the [^3 H]-thymidine incorporation, in counts per minute (cpm), was measured in a Packard Tri-carb 4640 Scintillation Counter.
Peripheral blood mononuclear cells from three individuals were cultured with an optimal concentration of pokeweed mitogen, a T-dependent B-cell mitogen, in the presence of increasing concentrations of (Z)-4',5'-didehydro-5'-deoxy-5'-fluoroadenosine. […] Similar studies were performed culturing human peripheral blood cells with an optimal concentration of Concanavalin A, a potent T-cell mitogen.

[3] = system: murine splenic mononuclear cells; test: Mitogenic assay: Concanavalin A stimulated proliferation ([3H]-thymidine incorporation) of murine splenic mononuclear cells; assay type: cell-based, CD-1 mice
Excerpt: Cells: Spleens and/or lymph nodes from a total of 16 individual outbred CD-1 mice (Charles River, Wilmington, Mass.) were asceptically removed, pooled, and single cell suspensions were made in Hank's Balanced Salt Solution (HBSS, calcium and magnesium free). Erythrocytes were lysed by treatment with Tris-buffered ammonium chloride (0.155M NH4 Cl, 0.0165M Tris, pH 7.2). Mononuclear cells were washed with HBSS and resuspended in Dulbecco's PBS and resuspended in RPMI 1640 containing 10% FCS, 5×10^-5 M 2mercaptoethanol, 2 mM L-glutamine, 1% penicillin-streptomycin and 1 mM HEPES buffer (CM).
as §1, with “Murine splenic” for “Human peripheral blood”, “(5×10^5)” for “(2×10^5)”, “with” for “with pokeweed mitogen at a final concentration of 0.1 μg/mL or”, “2.5” for “1.0”, “plates.” for “plates (Falcon 3072, Becton Dickinson).”, “days.” for “days (Concanavalin A) or 6 days (Pokeweed mitogen).”

## Nc1ncnc2c1ncn2[C@@H]1O/C(=C\F)[C@@H](O)[C@H]1O [Compound A, (Z)-4',5'-didehydro-5'-deoxy-5'-fluoroadenosine]
[1]; Homo sapiens, PBMC, 144 h, 1.0 μM, pokeweed mitogen 0.1 μg/mL, 6 days, read-out: Proliferation (% of Control) Pokeweed mitogen
  activity at 1 µM: 50.9%
[1]; Homo sapiens, PBMC, 144 h, 10.0 μM, pokeweed mitogen 0.1 μg/mL, 6 days, read-out: Proliferation (% of Control) Pokeweed mitogen
  activity at 10 µM: 19.7%
[1]; Homo sapiens, PBMC, 144 h, .001 μM, pokeweed mitogen 0.1 μg/mL, 6 days, read-out: Proliferation (% of Control) Pokeweed mitogen
  activity at 0.001 µM: 97.4%
[1]; Homo sapiens, PBMC, 144 h, .01 μM, pokeweed mitogen 0.1 μg/mL, 6 days, read-out: Proliferation (% of Control) Pokeweed mitogen
  activity at 0.01 µM: 103%
[1]; Homo sapiens, PBMC, 144 h, .1 μM, pokeweed mitogen 0.1 μg/mL, 6 days, read-out: Proliferation (% of Control) Pokeweed mitogen
  activity at 0.1 µM: 72.1%
[1]; increasing concentrations
  inhibition of pokeweed stimulated proliferation, in words: dose dependent inhibition
anti-ovalbumin IgG; 5 mg/Kg i.p. daily
  Anti-Ovalbumin Titer ± S.D.: 550 ± 272
anti-ovalbumin IgG; 10 mg/Kg i.p. daily
  Anti-Ovalbumin Titer ± S.D.: 375 ± 124
anti-ovalbumin IgG; 5 or 10 mg/Kg i.p. daily, in words
  serum levels of anti-ovalbumin IgG compared to Controls: significantly reduced
[2]; Homo sapiens, PBMC, 48 h, 1.0 μM, Concanavalin A 1.0 μg/mL, 2 days, read-out: Proliferation (% of Control) Concanavalin A mitogen
  activity at 1 µM: 15.8%
[2]; Homo sapiens, PBMC, 48 h, 10.0 μM, Concanavalin A 1.0 μg/mL, 2 days, read-out: Proliferation (% of Control) Concanavalin A mitogen
  activity at 10 µM: 3.7%
[2]; Homo sapiens, PBMC, 48 h, .001 μM, Concanavalin A 1.0 μg/mL, 2 days, read-out: Proliferation (% of Control) Concanavalin A mitogen
  activity at 0.001 µM: 100%
[2]; Homo sapiens, PBMC, 48 h, .01 μM, Concanavalin A 1.0 μg/mL, 2 days, read-out: Proliferation (% of Control) Concanavalin A mitogen
  activity at 0.01 µM: 101%
[2]; Homo sapiens, PBMC, 48 h, .1 μM, Concanavalin A 1.0 μg/mL, 2 days, read-out: Proliferation (% of Control) Concanavalin A mitogen
  activity at 0.1 µM: 66.4%
[2]; PBMC, 48 h, human cells, Concanavalin A 1.0 μg/mL, 2 days, read-out: IC50, inhibition of Concanavalin A stimulated proliferation
  IC50: 250 nM
[2]; human cells, increasing concentrations
  inhibition of Concanavalin A stimulated proliferation, in words: dose dependent inhibition
[3]; Mus musculus, 48 h, 1.0 μM, Concanavalin A 2.5 μg/mL, 2 days, read-out: Proliferation (% of Control) Concanavalin A mitogen
  activity at 1 µM: 28.6%
[3]; Mus musculus, 48 h, 10.0 μM, Concanavalin A 2.5 μg/mL, 2 days, read-out: Proliferation (% of Control) Concanavalin A mitogen
  activity at 10 µM: 17.9%
[3]; Mus musculus, 48 h, .001 μM, Concanavalin A 2.5 μg/mL, 2 days, read-out: Proliferation (% of Control) Concanavalin A mitogen
  activity at 0.001 µM: 96.3%
[3]; Mus musculus, 48 h, .01 μM, Concanavalin A 2.5 μg/mL, 2 days, read-out: Proliferation (% of Control) Concanavalin A mitogen
  activity at 0.01 µM: 86%
[3]; Mus musculus, 48 h, .1 μM, Concanavalin A 2.5 μg/mL, 2 days, read-out: Proliferation (% of Control) Concanavalin A mitogen
  activity at 0.1 µM: 51.8%
[3]; Mus musculus, 48 h, murine cells, Concanavalin A 2.5 μg/mL, 2 days, read-out: IC50, inhibition of Concanavalin A stimulated proliferation
  IC50: 190 nM
[3]; murine cells, increasing concentrations
  inhibition of Concanavalin A stimulated proliferation, in words: dose dependent inhibition
